Measured values reported in US9497970B2, “Pesticide compounds” (priority 2013, dated 2016).

Assays:
Type in all cases: in vivo
[1] = tested on: Mediterranean Fruitfly (Ceratitis capitata); test: B.6 Mediterranean Fruitfly (Ceratitis capitata), microtiter plate insect diet; details: 120 h, 800 ppm, sprayed onto insect diet, 5 days, in comparison with untreated controls, read-out: mortality (egg and larval)
Procedure: B.6 Mediterranean Fruitfly (Ceratitis capitata)
For evaluating control of Mediterranean fruitfly (Ceratitis capitata) the test unit consisted of microtiter plates containing an insect diet and 50-80 C. capitata eggs.
(§1) The compounds were formulated using a solution containing 75% v/v water and 25% v/v DMSO. Different concentrations of formulated compounds were sprayed onto the insect diet at 5 μl, using a custom built micro atomizer, at two replications.
(§2) After application, microtiter plates were incubated at about 28±1° C. and about 80±5% relative humidity for 5 days. Egg and larval mortality was then visually assessed.

[2] = tested on: Tobacco Budworm (Heliothis virescens); test: B.7 Tobacco Budworm (Heliothis virescens) I, microtiter plate insect diet; details: 120 h, 800 ppm, sprayed onto insect diet, 5 days, in comparison with untreated controls, read-out: mortality (egg and larval)
Procedure: B.7 Tobacco Budworm (Heliothis virescens) I
as §1, with “For evaluating control of tobacco budworm (Heliothis virescens) the test unit consisted of 96-well-microtiter plates containing an insect diet and 15-25 H. virescens eggs. The” for “The”, “at 10” for “at 5”
as §2

[3] = tested on: Boll Weevil (Anthonomus grandis); test: B.3 Boll Weevil (Anthonomus grandis), microtiter plate insect diet; details: 120 h, 800 ppm, sprayed onto insect diet, 5 days, in comparison with untreated controls, read-out: mortality (egg and larval)
Procedure: B.3 Boll Weevil (Anthonomus grandis)
For evaluating control of boll weevil (Anthonomus grandis) the test unit consisted of 96-well-microtiter plates containing an insect diet and 5-10 A. grandis eggs.
as §1
After application, microtiter plates were incubated at about 25±1° C. and about 75±5% relative humidity for 5 days. Egg and larval mortality was then visually assessed.

[4] = tested on: Diamond Back Moth (Plutella xylostella); test: B.1 Diamond Back Moth (Plutella xylostella), cabbage leaf dip; details: foliar, 500 ppm, 3rd instar larvae on dipped cabbage leaves, 72 hours after treatment, in comparison with untreated controls, read-out: mortality
Procedure: B.1 Diamond Back Moth (Plutella xylostella)
The active compound was dissolved at the desired concentration in a mixture of 1:1 (vol:vol) distilled water:aceteone. Surfactant (Kinetic HV) was added at a rate of 0.01% (vol/vol). The test solution was prepared at the day of use.
Leaves of cabbage were dipped in test solution and air-dried. Treated leaves were placed in petri dishes lined with moist filter paper and inoculated with ten 3rd instar larvae. Mortality was recorded 72 hours after treatment. Feeding damages were also recorded using a scale of 0-100%.

FC(F)(F)Oc1ccc(-n2cnc3c4ccc(/C=N/NC(=S)Nc5c(Cl)cc(Cl)cc5Cl)cc4ccc32)cc1 [C-3, 1-(2,4,6-trichlorophenyl)-3-[(E)-[3-[4-(trifluoromethoxy)phenyl]benzo[e]benzimidazol-7-yl]methyleneamino] thiourea]
mortality at 800 ppm [1]: ≥ 75%
mortality at 800 ppm [2]: ≥ 75%
mortality at 800 ppm [3]: ≥ 75%
mortality at 500 ppm [4]: ≥ 75%

Cc1cccc(C)c1NC(=S)N/N=C/c1ccc2c(c1)CCc1c-2nnn1-c1ccc(OC(F)(F)F)cc1 [C-11, 1-(2,6-dimethylphenyl)-3-[(E)-[3-[4-(trifluoromethoxy)phenyl]-4,5-dihydrobenzo[e]benzotriazol-7-yl]methyleneamino]thiourea]
mortality at 800 ppm [1]: ≥ 75%
mortality at 800 ppm [2]: ≥ 75%

FC(F)(F)Oc1ccc(-n2cnc3c4ccc(/C=N/NC(=S)Nc5ccc(Cl)cc5Cl)cc4ccc32)cc1 [C-27, 1-(2,4-dichlorophenyl)-3-[(E)-[3-[4-(trifluoromethoxy)phenyl]benzo[e]benzimidazol-7-yl]methyleneamino]thiourea]
mortality at 800 ppm [1]: ≥ 75%
mortality at 800 ppm [3]: ≥ 75%
mortality at 500 ppm [4]: ≥ 75%

Cc1cccc(NC(=S)N/N=C/c2ccc3c(ccc4c3ncn4-c3ccc(OC(F)(F)F)cc3)c2)c1C [C-28, 1-(2,3-dimethylphenyl)-3-[(E)-[3-[4-(trifluoromethoxy)phenyl]benzo[e]benzimidazol-7-yl]methyleneamino] thiourea]
mortality at 800 ppm [1]: ≥ 75%
mortality at 800 ppm [2]: ≥ 75%
mortality at 800 ppm [3]: ≥ 75%

CCc1ccccc1NC(=S)N/N=C/c1ccc2c(c1)CCc1c-2nnn1-c1ccc(OC(F)(F)F)cc1 [C-32, 1-(2-ethylphenyl)-3-[[3-[4-(trifluoromethoxy)phenyl]-5,6-dihydro-4H-benzo[e]benzotriazol-7-ylidene]methylimino]thiourea]
mortality at 800 ppm [3]: ≥ 75%

Cc1cc(Br)cc(C)c1NC(=S)N/N=C/c1ccc2c(c1)CCc1c-2nnn1-c1ccc(OC(F)(F)F)cc1 [C-33, 1-(4-bromo-2,6-dimethyl-phenyl)-3-[(E)-[3-[4-(trifluoromethoxy)phenyl]-4,5-dihydrobenzo[e]benzotriazol-7-yl]methyleneamino]thiourea]
mortality at 800 ppm [2]: ≥ 75%
mortality at 800 ppm [3]: ≥ 75%

Cc1c(Cl)cccc1NC(=S)N/N=C/c1ccc2c(ccc3c2ncn3-c2ccc(OC(F)(F)F)cc2)c1 [C-39, 1-(3-chloro-2-methyl-phenyl)-3-[(E)-[3-[4-(trifluoromethoxy)phenyl]benzo[e]benzimidazol-7-yl]methyleneamino] thiourea]
mortality at 800 ppm [1]: ≥ 75%
mortality at 800 ppm [2]: ≥ 75%
mortality at 800 ppm [3]: ≥ 75%

Fc1ccccc1NC(=S)N/N=C/c1ccc2c(ccc3c2ncn3-c2ccc(OC(F)(F)F)cc2)c1 [C-40, 3-(2-fluorophenyl)-1-[[3-[4-(trifluoromethoxy)phenyl]-5H-benzo[e]benzimidazol-7-ylidene]methylimino] isothiourea]
mortality at 800 ppm [1]: ≥ 75%
mortality at 800 ppm [3]: ≥ 75%
mortality at 500 ppm [4]: ≥ 75%

FC(F)(F)Oc1ccc(-n2cnc3c4ccc(/C=N/NC(=S)Nc5cc(Cl)ccc5Cl)cc4ccc32)cc1 [C-42, 1-(2,5-dichlorophenyl)-3-[(E)-[3-[4-(trifluoromethoxy)phenyl]benzo[e]benzimidazol-7-yl]methyleneamino] thiourea]
mortality at 800 ppm [3]: ≥ 75%

FC(F)(F)Oc1ccc(-n2ncc3c4ccc(/C=N/NC(=S)Nc5c(Cl)cccc5Cl)cc4ccc32)cc1 [C-49, 1-(2,6-dichlorophenyl)-3-[(E)-[3-[4-(trifluoromethoxy)phenyl]benzo[e]indazol-7-yl]methyleneamino]thiourea]
mortality at 800 ppm [2]: ≥ 75%
mortality at 800 ppm [3]: ≥ 75%

Cc1cccc(C)c1NC(=S)N/N=C/c1ccc2c(ccc3c2nnn3-c2ccc(OC(F)(F)F)cc2)c1 [C-54, 1-(2,6-dimethylphenyl)-3-[(E)-[3-[4-(trifluoromethoxy)phenyl]benzo[e]benzotriazol-7-yl]methyleneamino] thiourea]
mortality at 800 ppm [2]: ≥ 75%

C/C(=N\NC(=S)Nc1c(Cl)cccc1Cl)c1ccc2c(ccc3c2ncn3-c2ccc(OC(F)(F)F)cc2)c1 [C-59]
mortality at 800 ppm [1]: ≥ 75%
mortality at 800 ppm [2]: ≥ 75%
mortality at 800 ppm [3]: ≥ 75%

CCc1cccc(CC)c1NC(=S)N/N=C/c1ccc2c(ccc3c2nnn3-c2ccc(OC(F)(F)F)cc2)c1 [C-61, 1-(2,6-diethylphenyl)-3-[(E)-[3-[4-(trifluoromethoxy)phenyl]benzo[e]benzotriazol-7-yl]methyleneamino] thiourea]
mortality at 800 ppm [2]: ≥ 75%
mortality at 800 ppm [3]: ≥ 75%

CCc1cccc(C)c1NC(=S)N/N=C/c1ccc2c(ccc3c2nnn3-c2ccc(OC(F)(F)F)cc2)c1 [C-62, 1-(2-ethyl-6-methyl-phenyl)-3-[(E)-[3-[4-(trifluoromethoxy)phenyl]benzo[e]benzotriazol-7-yl]methyleneamino] thiourea]
mortality at 800 ppm [2]: ≥ 75%

Cc1cccnc1NC(=S)N/N=C/c1ccc2c(ccc3c2ncn3-c2ccc(OC(F)(F)F)cc2)c1 [C-63, 1-(3-methyl-2-pyridyl)-3-[(E)-[3-[4-(trifluoromethoxy)phenyl]benzo[e]benzimidazol-7-yl]methyleneamino] thiourea]
mortality at 800 ppm [1]: ≥ 75%
mortality at 800 ppm [2]: ≥ 75%
mortality at 800 ppm [3]: ≥ 75%

FC(F)(F)Oc1ccc(-n2cnc3c4ccc(/C=N/NC(=S)Nc5ccccc5I)cc4ccc32)cc1 [C-64, 1-(2-iodophenyl)-3-[[3-[4-(trifluoromethoxy)phenyl]-5H-benzo[e]benzimidazol-7-ylidene]methylimino] thiourea]
mortality at 800 ppm [1]: ≥ 75%
mortality at 800 ppm [2]: ≥ 75%
mortality at 800 ppm [3]: ≥ 75%

FC(F)(F)Oc1ccc(-n2cnc3c4ccc(/C=N/NC(=S)Nc5cccnc5)cc4ccc32)cc1 [C-73, 1-(3-pyridyl)-3-[(E)-[3-[4-(trifluoromethoxy)phenyl]benzo[e]benzimidazol-7-yl]methyleneamino] thiourea]
mortality at 800 ppm [3]: ≥ 75%

O=C(N/N=C/c1ccc2c(ccc3c2ncn3-c2ccc(OC(F)(F)F)cc2)c1)Nc1ccccc1 [C-89, 1-phenyl-3-[(E)-[3-[4-(trifluoromethoxy)phenyl]benzo[e]benzimidazol-7-yl]methyleneamino]urea]
mortality at 800 ppm [2]: ≥ 75%
mortality at 800 ppm [3]: ≥ 75%
mortality at 500 ppm [4]: ≥ 75%

CN1N=C2c3ccc(/C=N/NC(=S)Nc4c(Cl)cccc4Cl)cc3CCC2C1c1ccc(OC(F)(F)F)cc1 (centres unmarked) [C-95, 1-(2,6-dichlorophenyl)-3-[(E)-[2-methyl-3-[4-(trifluoromethoxy)phenyl]-3,3a,4,5-tetrahydrobenzo[g]indazol-7-yl]methyleneamino]thiourea]
mortality at 800 ppm [2]: ≥ 75%
mortality at 800 ppm [3]: ≥ 75%
mortality at 500 ppm [4]: ≥ 75%

Cn1nc2c(ccc3cc(/C=N/NC(=S)Nc4ncccc4I)ccc32)c1-c1ccc(OC(F)(F)F)cc1 [C-102, 1-(3-iodo-2-pyridyl)-3-[(E)-[2-methyl-3-[4-(trifluoromethoxy)phenyl]benzo[g]indazol-7-yl]methyleneamino]thiourea]
mortality at 800 ppm [3]: ≥ 75%

O=C(/N=C1\SCC(=O)N1c1ccccc1C(F)(F)F)Nc1ccc2c(ccc3c2ncn3-c2ccc(OC(F)(F)F)cc2)c1 [C-116, (1Z)-1-[4-oxo-3-[2-(trifluoromethyl)phenyl]thiazolidin-2-ylidene]-3-[3-[4-(trifluoromethoxy)phenyl]-8H-benzo[e]benzimidazol-7-ylidene]urea]
mortality at 800 ppm [2]: ≥ 75%
mortality at 800 ppm [3]: ≥ 75%
